From ChEMBL document CHEMBL1201862, “PubChem BioAssay data set” (2004)
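All cell lines were grown in 96-well plates and treated with compound for 48 hours. GI50 is the concentration that inhibits growth by half.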 The source made the active and inactive calls. Rule as the data show it: active = GI50 up to about 1.1 µM and inactive = higher.

Tests used:
Test in all cases: growth of human tumour cells (NCI), 48 h
[1] = test system: DU-145
[2] = test system: HCC 2998
[3] = test system: HL-60
[4] = test system: HOP-92
[5] = test system: HT-29
[6] = test system: Hs-578T
[7] = test system: IGROV-1
[8] = test system: MCF7
[9] = test system: NCI-H460
[10] = test system: NCI/ADR-RES
[11] = test system: OVCAR-3
[12] = test system: PC-3
[13] = test system: SK-MEL-28
[14] = test system: SK-MEL-2
[15] = test system: SK-MEL-5
[16] = test system: SN12C
[17] = test system: T47D

Measured: GI50

CC(C)(C)OC(=O)NCCC(=O)NC1(c2cc3ccccc3s2)CCCCC1
inactive: [1] 16.7 µM | [2] 23.2 µM | [3] 16.7 µM | [4] 16.6 µM | [5] 13.8 µM | [6] 28.1 µM | [7] 17.3 µM | [8] 17.5 µM | [9] 14.8 µM | [10] 18.1 µM | [11] 15.6 µM | [12] 18.5 µM | [13] 19.1 µM | [14] 18 µM | [15] 13.1 µM | [16] 18.3 µM | [17] 8.05 µM

NS(=O)(=O)c1ccc(NNc2c3ccccc3nc3c(C(=O)Nc4ccc(S(N)(=O)=O)cc4)cccc23)cc1
inactive: [1] 43.8 µM | [2] 17.4 µM | [3] 22.3 µM | [4] 5.07 µM | [5] 26.9 µM | [6] 19.1 µM | [7] 19.3 µM | [8] 12.9 µM | [9] 24.2 µM | [10] > 100 µM | [11] 23 µM | [12] 30.2 µM | [13] 48.6 µM | [14] 13 µM | [15] 34.9 µM | [16] 31.5 µM | [17] 6.27 µM

COC(=O)C1CCC(=O)N1C(c1ccc(OC)cc1)c1ccc2c(c1)OCO2 (stereo unspecified)
inactive: [1] > 100 µM | [2] 28.7 µM | [3] 21.2 µM | [4] > 100 µM | [5] 34.9 µM | [6] 36.2 µM | [7] 52 µM | [8] 36.7 µM | [9] 40.4 µM | [10] 33.3 µM | [11] 50.8 µM | [12] 45.3 µM | [13] 57.1 µM | [14] 43.7 µM | [15] 24.7 µM | [16] 57.9 µM | [17] > 100 µM

CC(C)/C(Cl)=N\OC(=O)Nc1ccc(C#N)cc1
inactive: [1] 18 µM | [2] 16.4 µM | [3] 2.56 µM | [4] 1.56 µM | [5] 21 µM | [6] 15.1 µM | [7] 17.6 µM | [8] 9.04 µM | [9] 17.3 µM | [10] 17.1 µM | [11] 16.8 µM | [12] 16.5 µM | [13] 12.1 µM | [14] 11.8 µM | [15] 5.11 µM | [16] 13.7 µM | [17] 5.77 µM

O=c1oc2ccc([N+](=O)[O-])cc2cc1-c1csc(-c2ccccc2)n1
inactive: [1] > 100 µM | [2] > 100 µM | [3] > 100 µM | [4] > 100 µM | [5] > 100 µM | [6] > 100 µM | [7] > 100 µM | [8] > 100 µM | [9] > 100 µM | [10] > 100 µM | [12] > 100 µM | [13] > 100 µM | [14] > 100 µM | [15] > 100 µM | [16] > 100 µM | [17] > 100 µM

COc1ccc2nc3cc([N+](=O)[O-])ccc3c(Nc3ccc(S(=O)(=O)Nc4ncccn4)cc3)c2c1
inactive: [1] > 100 µM | [2] > 59 µM | [3] > 100 µM | [4] > 44.7 µM | [5] 26.5 µM | [6] 12.4 µM | [7] 15 µM | [8] 15.3 µM | [9] 61.5 µM | [10] > 100 µM | [11] > 50.4 µM | [12] 30.6 µM | [13] > 85.5 µM | [14] > 43.4 µM | [15] 41.6 µM | [16] > 100 µM | [17] > 100 µM

Cc1cc2c(cc1C)[n+]([O-])c(C(=O)N1CCN(c3ccc([N+](=O)[O-])cc3)CC1)c(C)[n+]2[O-]
inactive: [1] 29.5 µM | [2] 26.8 µM | [3] > 100 µM | [4] 23.6 µM | [5] > 100 µM | [6] 96.2 µM | [7] 27.6 µM | [8] > 100 µM | [9] 22.9 µM | [10] > 100 µM | [11] > 100 µM | [12] 93.3 µM | [13] > 100 µM | [14] 38.5 µM | [15] 74.6 µM | [16] 63.7 µM | [17] 63.2 µM

COC1(OC)C2(Cl)C(Cl)=C(Cl)C1(Cl)C1COCC12 (stereo unspecified)
inactive: [1] 13.4 µM | [2] > 100 µM | [3] > 61.4 µM | [4] > 81.3 µM | [5] > 100 µM | [6] > 100 µM | [7] > 100 µM | [8] > 100 µM | [9] > 100 µM | [10] > 100 µM | [11] > 100 µM | [12] > 100 µM | [13] > 38.7 µM | [14] > 100 µM | [15] > 100 µM | [16] > 100 µM | [17] > 100 µM

CC(=O)Nc1cc2c3c(c1)CCCN3CCC2
inactive: [1] > 100 µM | [2] > 100 µM | [3] > 100 µM | [4] > 100 µM | [5] > 100 µM | [6] > 100 µM | [7] > 100 µM | [8] > 100 µM | [9] > 100 µM | [10] > 100 µM | [11] > 100 µM | [12] > 100 µM | [13] > 100 µM | [14] > 100 µM | [15] > 100 µM | [17] 44.6 µM

c1ccc(C2=C(c3ccccc3)Sc3nnc(CCCCCCCCc4nnc5n4NC(c4ccccc4)=C(c4ccccc4)S5)n3N2)cc1
inactive: [1] > 100 µM | [2] 85.5 µM | [3] 17.7 µM | [4] 54.8 µM | [5] 31.8 µM | [6] 73.5 µM | [8] 35.8 µM | [9] 48.9 µM | [10] 45.8 µM | [11] 39.8 µM | [12] 41.4 µM | [13] > 100 µM | [14] 63 µM | [15] 33.6 µM | [16] 77.3 µM | [17] 24.7 µM

CN(CCCN=C=S)CCCN1c2ccccc2CCc2ccccc21
inactive: [1] 1.83 µM | [2] 1.31 µM | [3] 1.94 µM | [4] 2.07 µM | [5] 1.51 µM | [6] 2.04 µM | [7] 1.79 µM | [8] 1.59 µM | [9] 1.82 µM | [10] 1.29 µM | [11] 1.66 µM | [12] 1.69 µM | [13] 2.06 µM | [14] 1.86 µM | [15] 1.78 µM | [16] 1.69 µM | [17] 2.07 µM

Clc1ccc(Cc2nc3cc(Cl)c(Cl)cc3n2CC2CCCN3CCCCC23)cc1Cl (stereo unspecified)
inactive: [1] 4.79 µM | [2] 1.65 µM | [3] 2.5 µM | [4] 5.38 µM | [5] 2.43 µM | [6] 3.4 µM | [7] 3.89 µM | [8] 2.38 µM | [9] 3.1 µM | [10] 4.46 µM | [11] 16 µM | [12] 4.12 µM | [13] 2.99 µM | [14] 6.34 µM | [15] 1.85 µM | [16] 4.13 µM | [17] 7.29 µM
